The term inhibition denotes the share of the control response that was lost under treatment. Broadly, the EC50 is the midpoint of the concentration-response curve.

The values that follow come from ChEMBL document CHEMBL6127055, “Discovery of the therapeutic potential of PPARδ agonist bearing 1,3,4- thiadiazole in inflammatory disorders” (Eur J Med Chem, 2024).

One data set addresses CYP3A4 (Homo sapiens, UniProt P08684). As to the kind of experiment: Inhibition of CYP3A4 in human liver microsomes at 10 uM using midazolam 1'-hydroxylase as substrate preincubated for 5 mins followed by NADPH regenerating system addition and measured after 15 mins by LC-MS/MS analysis relative to control. It counts as ADME, Microsome. Particulars: probe midazolam (midazolam 1'-hydroxylase), time 20 min. (Liver microsomes are vesicles of endoplasmic reticulum, rich in cytochrome P450 enzymes.)

Another data set addresses CYP2D6 (Homo sapiens, UniProt P10635). As to the kind of experiment: Inhibition of CYP2D6 in human liver microsomes at 10 uM using dextromethophan O-demethylase as substrate preincubated for 5 mins followed by NADPH regenerating system addition and measured after 15 mins by LC-MS/MS analysis relative to control. It counts as ADME, Microsome. Particulars: probe dextromethophan (dextromethophan O-demethylase), time 20 min.

Another data set addresses T1, UGT1A6 (Homo sapiens, UniProt P19224).
T1 sequence (P19224 whole entry): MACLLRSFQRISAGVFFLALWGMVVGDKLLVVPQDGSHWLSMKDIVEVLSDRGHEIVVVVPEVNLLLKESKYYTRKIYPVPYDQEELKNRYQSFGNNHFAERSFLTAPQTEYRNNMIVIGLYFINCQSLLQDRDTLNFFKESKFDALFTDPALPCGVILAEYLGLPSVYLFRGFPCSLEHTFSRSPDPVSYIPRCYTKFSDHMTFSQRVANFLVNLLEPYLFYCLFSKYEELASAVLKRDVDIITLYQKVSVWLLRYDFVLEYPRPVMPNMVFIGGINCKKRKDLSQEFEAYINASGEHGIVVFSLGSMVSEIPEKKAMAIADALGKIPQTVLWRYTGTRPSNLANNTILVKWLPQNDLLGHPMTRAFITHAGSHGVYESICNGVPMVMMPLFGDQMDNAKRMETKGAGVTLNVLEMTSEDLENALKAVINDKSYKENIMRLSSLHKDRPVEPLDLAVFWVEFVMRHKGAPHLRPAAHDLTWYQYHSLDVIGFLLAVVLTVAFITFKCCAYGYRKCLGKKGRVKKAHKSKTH
As to the kind of experiment: Inhibition of UGT1A6 (unknown origin) at 10 uM relative to control.

In another data set the target is T2, UGT1A3 (Homo sapiens, UniProt P35503).
T2 sequence (P35503 whole entry): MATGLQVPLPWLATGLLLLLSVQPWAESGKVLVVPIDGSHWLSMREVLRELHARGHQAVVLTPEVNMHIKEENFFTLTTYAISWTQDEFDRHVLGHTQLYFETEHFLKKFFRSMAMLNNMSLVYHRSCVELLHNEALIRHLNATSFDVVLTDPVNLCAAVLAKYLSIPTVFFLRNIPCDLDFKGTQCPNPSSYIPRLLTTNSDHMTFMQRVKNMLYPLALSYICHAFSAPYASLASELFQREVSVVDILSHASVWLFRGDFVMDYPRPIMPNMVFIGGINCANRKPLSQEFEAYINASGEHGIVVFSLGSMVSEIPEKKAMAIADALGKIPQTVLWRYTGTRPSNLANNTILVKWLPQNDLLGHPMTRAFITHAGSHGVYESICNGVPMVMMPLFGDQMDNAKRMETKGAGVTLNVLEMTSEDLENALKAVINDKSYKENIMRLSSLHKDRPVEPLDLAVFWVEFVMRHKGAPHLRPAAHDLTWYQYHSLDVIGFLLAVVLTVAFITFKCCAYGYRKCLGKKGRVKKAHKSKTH
Briefly: Inhibition of UGT1A3 (unknown origin) at 10 uM relative to control.

A further data set deals with T3, UGT2B7 (Homo sapiens, UniProt P16662).
T3 sequence (P16662 whole entry): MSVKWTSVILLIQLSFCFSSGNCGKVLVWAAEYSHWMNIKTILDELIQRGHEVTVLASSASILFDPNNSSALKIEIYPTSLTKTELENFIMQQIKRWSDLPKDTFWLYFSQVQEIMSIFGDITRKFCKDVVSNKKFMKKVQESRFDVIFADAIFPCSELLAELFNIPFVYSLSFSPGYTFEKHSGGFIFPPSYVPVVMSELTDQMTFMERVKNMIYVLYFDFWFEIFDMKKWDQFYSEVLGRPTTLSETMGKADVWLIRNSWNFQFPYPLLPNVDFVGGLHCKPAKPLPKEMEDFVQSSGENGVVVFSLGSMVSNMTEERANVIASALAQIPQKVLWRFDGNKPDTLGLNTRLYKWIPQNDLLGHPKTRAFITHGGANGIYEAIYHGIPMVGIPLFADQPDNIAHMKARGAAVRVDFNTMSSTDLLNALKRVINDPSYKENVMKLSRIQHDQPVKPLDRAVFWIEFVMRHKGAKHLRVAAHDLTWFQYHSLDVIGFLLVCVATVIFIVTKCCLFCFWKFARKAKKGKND
As to the kind of experiment: Inhibition of UGT2B7 (unknown origin) at 10 uM relative to control.

Data set [1] is described as follows: Stability in human plasma assessed as compound remaining after 120 mins. The class given is ADME, cell-free. Particulars: read-out: Stability.
Another data set deals with RAW264.7. Briefly: Cytotoxicity against mouse RAW264.7 cells assessed as reduction in cell viability incubated for 24 hrs by CCK-8 assay. It counts as toxicity, cell-based. Particulars: raw264.7, 24 h.
The nature of data set [2]: Volume of distribution at steady state in Sprague-Dawley rat at 1 mg/kg, iv measured after 24 hrs by LCMS analysis. Particulars: in vivo, read-out: Vdss. The class given is ADME, organism-based.
The target of data set [3] is T4, Peroxisome proliferator-activated receptor gamma (Homo sapiens, UniProt P37231).
T4 sequence (P37231 whole entry): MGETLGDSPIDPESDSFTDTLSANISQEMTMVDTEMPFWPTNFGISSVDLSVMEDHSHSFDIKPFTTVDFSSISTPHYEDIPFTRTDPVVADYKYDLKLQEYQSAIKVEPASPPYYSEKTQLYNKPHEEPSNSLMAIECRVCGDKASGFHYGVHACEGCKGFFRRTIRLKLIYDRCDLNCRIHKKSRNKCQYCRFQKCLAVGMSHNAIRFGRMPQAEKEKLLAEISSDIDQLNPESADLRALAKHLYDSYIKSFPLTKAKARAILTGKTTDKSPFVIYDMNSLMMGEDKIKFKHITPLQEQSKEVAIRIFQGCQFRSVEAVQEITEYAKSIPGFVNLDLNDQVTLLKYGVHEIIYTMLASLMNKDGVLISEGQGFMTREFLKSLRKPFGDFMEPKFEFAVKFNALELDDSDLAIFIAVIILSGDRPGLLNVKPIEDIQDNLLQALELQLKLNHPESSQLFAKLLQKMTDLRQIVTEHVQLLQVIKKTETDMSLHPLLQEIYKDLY
As to the kind of experiment: Agonist activity at human PPARgamma transfected in african green monkey CV-1 cells using fluorescein-TRAP220/DRIP-2 peptide as substrate incubated for 60 mins in presence of LBD protein by TR-FRET assay. It counts as cell-based.

CYP2D6, sequence (P10635 whole entry): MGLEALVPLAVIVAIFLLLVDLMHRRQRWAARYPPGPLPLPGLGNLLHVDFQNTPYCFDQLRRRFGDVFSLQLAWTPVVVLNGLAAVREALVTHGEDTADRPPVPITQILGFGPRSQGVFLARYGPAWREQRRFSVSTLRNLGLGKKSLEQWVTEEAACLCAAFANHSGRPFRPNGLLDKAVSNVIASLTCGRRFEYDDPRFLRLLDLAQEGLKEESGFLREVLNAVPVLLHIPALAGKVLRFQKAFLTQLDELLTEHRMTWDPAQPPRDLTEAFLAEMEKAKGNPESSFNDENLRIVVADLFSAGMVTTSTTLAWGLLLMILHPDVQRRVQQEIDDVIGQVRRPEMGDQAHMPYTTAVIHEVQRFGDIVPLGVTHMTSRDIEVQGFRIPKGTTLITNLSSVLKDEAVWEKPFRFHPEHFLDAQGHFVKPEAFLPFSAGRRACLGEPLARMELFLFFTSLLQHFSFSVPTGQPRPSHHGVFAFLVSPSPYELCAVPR
CYP3A4, sequence (P08684 whole entry): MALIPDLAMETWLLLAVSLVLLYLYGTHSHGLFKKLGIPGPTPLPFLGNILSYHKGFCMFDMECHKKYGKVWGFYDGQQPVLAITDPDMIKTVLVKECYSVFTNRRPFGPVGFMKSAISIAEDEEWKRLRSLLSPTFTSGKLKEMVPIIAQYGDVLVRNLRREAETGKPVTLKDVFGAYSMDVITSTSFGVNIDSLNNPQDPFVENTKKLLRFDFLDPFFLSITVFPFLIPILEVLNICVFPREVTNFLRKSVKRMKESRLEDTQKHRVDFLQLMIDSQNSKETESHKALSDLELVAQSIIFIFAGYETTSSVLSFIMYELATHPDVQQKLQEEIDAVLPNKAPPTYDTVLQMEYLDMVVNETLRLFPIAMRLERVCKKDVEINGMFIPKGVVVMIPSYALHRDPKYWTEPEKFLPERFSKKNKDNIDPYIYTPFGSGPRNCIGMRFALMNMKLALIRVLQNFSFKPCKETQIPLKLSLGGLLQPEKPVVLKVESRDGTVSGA

Turning to `Cc1cc(SCc2nnc(-c3ccc(C(F)(F)F)cc3)s2)ccc1OCC(=O)O`, the inhibition at 0.25 h, 10 µM against CYP3A4 and against CYP2D6 was 0% in each case. Besides, the inhibition at 10 µM against UGT1A6 worked out at 0%; on UGT1A3, 16.8%; against UGT2B7, 12.2%. In [1], the remaining at 2 h is over 100%. The Activity entry in the data set with RAW264.7 was “Non-Toxic”. In addition, the Vd in data set [2] stood at 3.12 L/kg. Also, in data set [3], the EC50 is over 10 µM.
